Our source for the EC50 values is patent US8729091B2, “4-phenoxy-nicotinamide or 4-phenoxy-pyrimidine-5-carboxamide compounds” (Hoffmann-La Roche Inc., priority 2010, dated 2014).

This assay has as its target T1, human GPBAR1 receptor (Homo sapiens, UniProt Q8TDU6).
T1 construct: expressed in transfected cells
T1 sequence (Q8TDU6 1-330): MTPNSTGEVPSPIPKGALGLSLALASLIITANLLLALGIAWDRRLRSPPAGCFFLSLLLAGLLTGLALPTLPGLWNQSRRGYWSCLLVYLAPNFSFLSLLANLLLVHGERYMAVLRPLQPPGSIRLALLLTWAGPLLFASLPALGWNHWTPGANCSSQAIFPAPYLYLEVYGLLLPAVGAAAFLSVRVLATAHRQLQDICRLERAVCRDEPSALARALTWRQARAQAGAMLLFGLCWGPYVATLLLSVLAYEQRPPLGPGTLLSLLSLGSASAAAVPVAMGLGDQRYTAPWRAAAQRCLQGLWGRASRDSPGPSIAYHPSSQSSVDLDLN
In words: functional cAMP assay in CHO-dhfr(minus) cells expressing human GPBAR1 receptors. The class given is cell-based. The conditions noted are these: cAMP increase (TR-FRET) in CHO-dhfr(minus) cells expressing human GPBAR1; compounds incubated 30 min at 30° C. On the procedure: The final clone was verified by DNA sequence analysis. The plasmid was transfected into CHO cells deficient in dihydrofolate reductase activity (CHO-dhfr−) using Lipofectamine plus (Invitrogen). Clones were isolated in limited dilution conditions and identified by activities in the cAMP assay using lithocholic acid as agonist.
The growth medium was exchanged with Krebs Ringer Bicarbonate buffer with 1 mM IBMX and incubated at 30° C. for 30 min. Compounds were added to a final assay volume of 100 μl and incubated for 30 min at 30° C. […] The time-resolved energy transfer is measured by a TRF reader (Evotec Technologies GmbH, Hamburg Germany), equipped with a ND:YAG laser as excitation source.
EC50 values were determined using Activity Base analysis (ID Business Solution, Limited). […] Specificity for GPBAR1 was tested in non-transfected CHO cells in the same assay as above.

In the case of `COC(=O)c1cc(Cl)c(Oc2cc(C)ncc2C(=O)N2CCN(C3CC3)c3ccccc32)cc1Cl` [Example 65, 2,5-Dichloro-4-[5-(4-cyclopropyl-3,4-dihydro-2H-quinoxaline-1-carbonyl)-2-methyl-pyridin-4-yloxy]-benzoic acid methyl ester], the EC50 (in general, the concentration that produces a half-maximal response) is 20 nM.
Take `CCOC(=O)c1sc(NC(=O)c2cc(Cl)c(Oc3ccncc3C(=O)N3CCN(C4CC4)c4ccccc43)cc2Cl)nc1C` [Example 45, 2-{2,5-Dichloro-4-[3-(4-cyclopropyl-3,4-dihydro-2H-quinoxaline-1-carbonyl)-pyridin-4-yloxy]-benzoylamino}-4-methyl-thiazole-5-carboxylic acid ethyl ester]: the response was half-maximal at 600 nM (EC50). This EC50 lies about 30-fold higher than the previous one.
With `O=C(c1cc(Cl)c(Oc2ccncc2C(=O)N2CCN(C3CC3)c3ccccc32)cc1Cl)N(CCO)CCO` [Example 50, 2,5-Dichloro-4-[3-(4-cyclopropyl-3,4-dihydro-2H-quinoxaline-1-carbonyl)-pyridin-4-yloxy]-N,N-bis-(2-hydroxy-ethyl)-benzamide] the figure was 1100 nM; with `O=C(O)c1ccc(NC(=O)c2cc(Cl)c(Oc3ccncc3C(=O)N3CCN(C4CC4)c4ccccc43)cc2Cl)cc1` [Example 44, 4-{2,5-Dichloro-4-[3-(4-cyclopropyl-3,4-dihydro-2H-quinoxaline-1-carbonyl)-pyridin-4-yloxy]-benzoylamino}-benzoic acid], 20 nM.
`COC(=O)c1cc(Cl)c(Oc2ccncc2C(=O)N2CCN(C3CC3)c3ccccc32)cc1C(=O)OC` [Example 28, 4-Chloro-5-[3-(4-cyclopropyl-3,4-dihydro-2H-quinoxaline-1-carbonyl)-pyridin-4-yloxy]-phthalic acid dimethyl ester] returned an EC50 of 4 nM. Compared with the last compound, the EC50 is about 5-fold lower.
With `O=C(c1cnccc1Oc1cc(Cl)ccc1Cl)N1CCNc2ccccc21` [Example 3, [4-(2,5-Dichloro-phenoxy)-pyridin-3-yl]-(3,4-dihydro-2H-quinoxalin-1-yl)-methanone] the figure was 100 nM; with `O=C(O)CCNC(=O)c1cc(Cl)c(Oc2ccncc2C(=O)N2CCN(C3CC3)c3ccccc32)cc1Cl` [Example 34, 3-{2,5-Dichloro-4-[3-(4-cyclopropyl-3,4-dihydro-2H-quinoxaline-1-carbonyl)-pyridin-4-yloxy]-benzoylamino}-propionic acid], 300 nM; with `COC(=O)c1cc(NC(=O)c2cc(Cl)c(Oc3ccncc3C(=O)N3CCN(C4CC4)c4ccccc43)cc2Cl)cn1C` [Example 41, 4-{2,5-Dichloro-4-[3-(4-cyclopropyl-3,4-dihydro-2H-quinoxaline-1-carbonyl)-pyridin-4-yloxy]-benzoylamino}-1-methyl-1H-pyrrole-2-carboxylic acid methyl ester], 100 nM.
For `CCOC(=O)CCNC(=O)c1cc(Cl)c(Oc2ccncc2C(=O)N2CCN(C3CC3)c3ccccc32)cc1Cl` [Example 33, 3-{2,5-Dichloro-4-[3-(4-cyclopropyl-3,4-dihydro-2H-quinoxaline-1-carbonyl)-pyridin-4-yloxy]-benzoylamino}-propionic acid ethyl ester], the EC50 was 20 nM.
With `O=C(c1cnccc1Oc1cc(Cl)ccc1Cl)N1CCN(C2CC2)c2cc(Cl)ccc21` [Example 11, (6-Chloro-4-cyclopropyl-3,4-dihydro-2H-quinoxalin-1-yl)-[4-(2,5-dichloro-phenoxy)-pyridin-3-yl]-methanone] the figure was 10 nM; with `O=C(Nc1cccc2c1NCCC2)c1cnccc1Oc1cc(Cl)ccc1Cl` [Example 22, 4-(2,5-Dichloro-phenoxy)-N-(1,2,3,4-tetrahydro-quinolin-8-yl)-nicotinamide], 900 nM.
Turning to `COC(=O)c1cc(Cl)c(Oc2ccncc2C(=O)N2CCN(C3CC3)c3ccccc32)cc1Cl` [Example 27, 2,5-Dichloro-4-[3-(4-cyclopropyl-3,4-dihydro-2H-quinoxaline-1-carbonyl)-pyridin-4-yloxy]-benzoic acid methyl ester], the EC50 stood at 4 nM.
The result for `COC(=O)c1ccc(NC(=O)c2cc(Cl)c(Oc3ccncc3C(=O)N3CCN(C4CC4)c4ccccc43)cc2Cl)cc1` [Example 43, 4-{2,5-Dichloro-4-[3-(4-cyclopropyl-3,4-dihydro-2H-quinoxaline-1-carbonyl)-pyridin-4-yloxy]-benzoylamino}-benzoic acid methyl ester] reads 100 nM; that for `CN(CCS(=O)(=O)O)C(=O)c1cc(Cl)c(Oc2ccncc2C(=O)N2CCN(C3CC3)c3ccccc32)cc1Cl` [Example 36, 2-({2,5-Dichloro-4-[3-(4-cyclopropyl-3,4-dihydro-2H-quinoxaline-1-carbonyl)-pyridin-4-yloxy]-benzoyl}-methyl-amino)-ethanesulfonic acid], 300 nM; that for `NC(=O)c1cc(Cl)c(Oc2ccncc2C(=O)N2CCN(C3CC3)c3ccccc32)cc1Cl` [Example 52, 2,5-Dichloro-4-[3-(4-cyclopropyl-3,4-dihydro-2H-quinoxaline-1-carbonyl)-pyridin-4-yloxy]-benzamide], 10 nM.
Take `COc1cc(F)c(F)cc1N(C)C(=O)c1cnccc1Oc1cc(Cl)ccc1Cl` [Example 19, 4-(2,5-Dichloro-phenoxy)-N-(4,5-difluoro-2-methoxy-phenyl)-N-methyl-nicotinamide]: the EC50 stood at 100 nM.
On to `O=C(c1cnccc1Oc1cc(Cl)c(O)cc1Cl)N1CCN(C2CC2)c2ccccc21` [Example 57, (4-Cyclopropyl-3,4-dihydro-2H-quinoxalin-1-yl)-[4-(2,5-dichloro-4-hydroxy-phenoxy)-pyridin-3-yl]-methanone], for which the response was half-maximal at 10 nM (EC50). This EC50 is about 10-fold lower than that of the compound before.
`O=C(c1cncnc1Oc1cc(Cl)ccc1Cl)N1CCNc2ccccc21` [Example 78, [4-(2,5-Dichloro-phenoxy)-pyrimidin-5-yl]-(3,4-dihydro-2H-quinoxalin-1-yl)-methanone] showed an EC50 of 300 nM.
With `O=C(c1cnccc1Oc1cc(Cl)ccc1Cl)N1CCN(C2CC2)c2cc(Cl)c(F)cc21` [Example 9, (6-Chloro-4-cyclopropyl-7-fluoro-3,4-dihydro-2H-quinoxalin-1-yl)-[4-(2,5-dichloro-phenoxy)-pyridin-3-yl]-methanone] the figure was 50 nM.
In turn, `O=C(c1cnc(Cl)cc1Oc1cc(Cl)ccc1Cl)N1CCCc2ccccc21` [Example 74, [6-Chloro-4-(2,5-dichloro-phenoxy)-pyridin-3-yl]-(3,4-dihydro-2H-quinolin-1-yl)-methanone] yielded an EC50 of 22 nM.
With `CS(=O)(=O)N1CCN(C(=O)c2cnccc2Oc2cc(Cl)ccc2Cl)c2ccccc21` [Example 7, [4-(2,5-Dichloro-phenoxy)-pyridin-3-yl]-(4-methanesulfonyl-3,4-dihydro-2H-quinoxalin-1-yl)-methanone] the figure was 300 nM; with `CN(C(=O)c1cnccc1Oc1cc(Cl)ccc1Cl)c1cc(C(F)(F)F)cc(C(F)(F)F)c1` [Example 18, N-(3,5-Bis-trifluoromethyl-phenyl)-4-(2,5-dichloro-phenoxy)-N-methyl-nicotinamide], 1400 nM; with `COC(=O)CN(C)C(=O)c1cc(Cl)c(Oc2ccncc2C(=O)N2CCN(C3CC3)c3ccccc32)cc1Cl` [Example 31, ({2,5-Dichloro-4-[3-(4-cyclopropyl-3,4-dihydro-2H-quinoxaline-1-carbonyl)-pyridin-4-yloxy]-benzoyl}-methyl-amino)-acetic acid methyl ester], 100 nM.
In turn, `Cc1nc(NC(=O)c2cc(Cl)c(Oc3ccncc3C(=O)N3CCN(C4CC4)c4ccccc43)cc2Cl)sc1C(=O)O` [Example 46, 2-{2,5-Dichloro-4-[3-(4-cyclopropyl-3,4-dihydro-2H-quinoxaline-1-carbonyl)-pyridin-4-yloxy]-benzoylamino}-4-methyl-thiazole-5-carboxylic acid] showed an EC50 of 30 nM.
